Data taken from patent publication US12156880B2, “Heterocyclic RIP1 kinase inhibitors” (Rigel Pharmaceuticals, Inc., priority 2021, dated 2024).

Tests used:
RIPK1 = target: T1, RIPK1 (Homo sapiens, UniProt Q13546); experiment: RIPK1 ADP-Glo biochemical kinase assay; conditions: read-out: RIPK1 ADP-Glo Kinase (IC50)
T1 sequence (Q13546 1-671): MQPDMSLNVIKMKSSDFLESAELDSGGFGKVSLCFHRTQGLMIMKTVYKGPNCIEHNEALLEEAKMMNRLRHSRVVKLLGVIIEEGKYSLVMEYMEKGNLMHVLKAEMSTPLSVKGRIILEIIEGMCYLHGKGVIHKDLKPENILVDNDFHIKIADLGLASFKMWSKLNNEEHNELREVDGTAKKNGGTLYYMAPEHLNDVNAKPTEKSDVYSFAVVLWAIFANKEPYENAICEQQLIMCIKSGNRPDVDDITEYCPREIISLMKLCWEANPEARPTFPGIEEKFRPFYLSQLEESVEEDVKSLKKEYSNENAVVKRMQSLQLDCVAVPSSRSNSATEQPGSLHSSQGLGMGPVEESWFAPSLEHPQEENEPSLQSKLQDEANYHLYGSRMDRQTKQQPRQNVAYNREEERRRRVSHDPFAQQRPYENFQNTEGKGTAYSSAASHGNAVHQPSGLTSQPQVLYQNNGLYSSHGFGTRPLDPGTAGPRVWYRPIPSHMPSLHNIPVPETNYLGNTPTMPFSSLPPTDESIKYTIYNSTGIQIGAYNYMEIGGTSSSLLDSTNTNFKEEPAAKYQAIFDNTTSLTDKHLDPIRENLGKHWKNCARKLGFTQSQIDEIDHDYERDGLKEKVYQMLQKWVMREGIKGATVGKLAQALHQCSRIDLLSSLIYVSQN
Outline: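 RIPK1 at 31 ng/well in Tris pH 7.4 buffer with MgCl2, BSA, DTT and MnCl2, reacted with compounds (duplicate) for 30 min at 30 °C. ADP formed detected by ADP-Glo: 40 min stop/depletion, then 30 min detection reagent at room temperature; luminescence read.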

L929 cells = experiment: L929 cell necroptosis assay (TNFa + zVAD, CellTiter-Glo recovery); assay type: cell-based, murine; conditions: Mus musculus, L929, 18 h, TNFa 2 ng/mL + zVAD-fmk, read-out: L929-CTG-recovery, L929, TNFa + zVAD (IC50)
Outline: (§1)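 Human U937 (50K/well, 60 uM zVAD-fmk medium, plated same day) or murine L929 (10K/well, plated 18 h, then 40 uM zVAD-fmk medium) were grown in RPMI with 10% FBS. Both were pretreated with compound for 1 h at 37 °C before TNFa at 2 ng/mL final. Viability was read by CellTiter-Glo luminescence after 18 h.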

U937 cells = experiment: U937 cell necroptosis assay (TNFa + zVAD, CellTiter-Glo recovery); assay type: cell-based; conditions: Homo sapiens, U-937, 18 h, TNFa 2 ng/mL + zVAD-fmk, read-out: U937 Zvad TNF CTG Recovery, U937, TNFa + zVAD (IC50)
Outline: as §1

SMILES	IC50 (RIPK1) [nM]	IC50 (L929 cells) [nM]	IC50 (U937 cells) [nM]
CN1C(=O)[C@@H](NC(=O)n2cc(Cc3cccc(C(F)(F)F)n3)cn2)COc2ccc(C#CC(C)(C)O)cc21 [I-9, (S)—N-(7-(3-Hydroxy-3-methylbut-1-yn-1-yl)-5-methyl-4-oxo-2,3,4,5-tetrahydrobenzo[b][1,4]oxazepin-3-yl)-4-((6-(trifluoromethyl)pyridin-2-yl)methyl)-1H-pyrazole-1-carboxamide]	64.3	2690	163
CN1C(=O)[C@@H](NC(=O)c2cc(Oc3cccnc3C#N)ccn2)COc2ccc(C#CC3(O)COC3)cc21 [I-92, (S)-4-((2-cyanopyridin-3-yl)oxy)-N-(7-((3-hydroxyoxetan-3-yl)ethynyl)-5-methyl-4-oxo-2,3,4,5-tetrahydrobenzo[b][1,4]oxazepin-3-yl)picolinamide]	20.8	7870	158
CN1C(=O)[C@@H](NC(=O)c2cc(Oc3cccnc3F)ccn2)COc2ccc(C#CC3COC3)cc21 [I-55, (S)-4-((2-fluoropyridin-3-yl)oxy)-N-(5-methyl-7-(oxetan-3-ylethynyl)-4-oxo-2,3,4,5-tetrahydrobenzo[b][1,4]oxazepin-3-yl)picolinamide]	14.3	155	1.2
CN1C(=O)[C@@H](NC(=O)c2cc(Cc3cscn3)ccn2)COc2ccc(C#CC3(O)COC3)cc21 [I-76, (S)—N-(7-((3-hydroxyoxetan-3-yl)ethynyl)-5-methyl-4-oxo-2,3,4,5-tetrahydrobenzo[b][1,4]oxazepin-3-yl)-4-(thiazol-4-ylmethyl)picolinamide]	12.8	538	24.7
Cc1cccc(Cc2cnn(C(=O)N[C@H]3COc4ccc(C#CC5COC5)cc4N(C)C3=O)c2)n1 [I-109, (S)—N-(5-Methyl-7-(oxetan-3-ylethynyl)-4-oxo-2,3,4,5-tetrahydrobenzo[b][1,4]oxazepin-3-yl)-4-((6-methylpyridin-2-yl)methyl)-1H-pyrazole-1-carboxamide]	26.3	3510	188
CN1C(=O)[C@@H](NC(=O)c2cc(Oc3cccnc3C#N)ccn2)COc2ccc(C#CC(C)(C)O)cc21 [I-91, (S)-4-((2-cyanopyridin-3-yl)oxy)-N-(7-(3-hydroxy-3-methylbut-1-yn-1-yl)-5-methyl-4-oxo-2,3,4,5-tetrahydrobenzo[b][1,4]oxazepin-3-yl)picolinamide]	101	9530	290
CCc1nc(Cc2ccnc(C(=O)N[C@H]3COc4ccc(C#CC5(O)COC5)cc4N(C)C3=O)c2)cs1 [I-99, (S)-4-((2-ethylthiazol-4-yl)methyl)-N-(7-((3-hydroxyoxetan-3-yl)ethynyl)-5-methyl-4-oxo-2,3,4,5-tetrahydrobenzo[b][1,4]oxazepin-3-yl)picolinamide]	26.7	225	26.8
Cc1ccc(Cc2cnn(C(=O)N[C@H]3COc4ccc(C#CC(C)(C)O)cc4N(C)C3=O)c2)cn1 [I-15, (S)—N-(7-(3-Hydroxy-3-methylbut-1-yn-1-yl)-5-methyl-4-oxo-2,3,4,5-tetrahydrobenzo[b][1,4]oxazepin-3-yl)-4-((6-methylpyridin-3-yl)methyl)-1H-pyrazole-1-carboxamide]	19.4	1680	27.5
CN1C(=O)[C@@H](NC(=O)c2cc(Oc3cncc(F)c3)ccn2)COc2ccc(C#CC(C)(C)C)cc21 [I-101, (S)—N-(7-(3,3-dimethylbut-1-yn-1-yl)-5-methyl-4-oxo-2,3,4,5-tetrahydrobenzo[b][1,4]oxazepin-3-yl)-4-((5-fluoropyridin-3-yl)oxy)picolinamide]	55.2	1580	9.1
Cc1ccc(Cc2ccnc(C(=O)N[C@H]3COc4ccc(C#CC5(O)COC5)cc4N(C)C3=O)c2)cn1 [I-73, (S)—N-(7-((3-hydroxyoxetan-3-yl)ethynyl)-5-methyl-4-oxo-2,3,4,5-tetrahydrobenzo[b][1,4]oxazepin-3-yl)-4-((6-methylpyridin-3-yl)methyl)picolinamide]	27.6	1950	91.7
CN1C(=O)[C@@H](NC(=O)n2cc(Cc3cccnc3F)cn2)COc2ccc(C#CC(C)(C)CO)cc21 [I-46, (S)-4-((2-Fluoropyridin-3-yl)methyl)-N-(7-(4-hydroxy-3,3-dimethylbut-1-yn-1-yl)-5-methyl-4-oxo-2,3,4,5-tetrahydrobenzo[b][1,4]oxazepin-3-yl)-1H-pyrazole-1-carboxamide]	37.5	2370	9.7
Cc1cccc(Cc2cnn(C(=O)N[C@H]3CCc4ccc(Br)cc4N(C)C3=O)c2)n1 [I-118, (S)—N-(8-Bromo-1-methyl-2-oxo-2,3,4,5-tetrahydro-1H-benzo[b]azepin-3-yl)-4-((6-methylpyridin-2-yl)methyl)-1H-pyrazole-1-carboxamide]	38.4	7670	256
CN1C(=O)[C@@H](NC(=O)c2cc(Cn3cccn3)ccn2)COc2ccc(C#CC3(O)COC3)cc21 [I-70, (S)-4-((1H-pyrazol-1-yl)methyl)-N-(7-((3-hydroxyoxetan-3-yl)ethynyl)-5-methyl-4-oxo-2,3,4,5-tetrahydrobenzo[b][1,4]oxazepin-3-yl)picolinamide]	44.9	2640	281
CN1C(=O)[C@@H](NC(=O)c2cc(Cc3cccc(F)n3)ccn2)COc2ccc(C#CC(C)(C)C)cc21 [I-97, (S)—N-(7-(3,3-dimethylbut-1-yn-1-yl)-5-methyl-4-oxo-2,3,4,5-tetrahydrobenzo[b][1,4]oxazepin-3-yl)-4-((6-fluoropyridin-2-yl)methyl)picolinamide]	83.2	386	16.4
CN1C(=O)[C@@H](NC(=O)c2cc(Oc3cncc(F)c3)ccn2)COc2ccc(C#CC(C)(C)O)cc21 [I-60, (S)-4-((5-fluoropyridin-3-yl)oxy)-N-(7-(3-hydroxy-3-methylbut-1-yn-1-yl)-5-methyl-4-oxo-2,3,4,5-tetrahydrobenzo[b][1,4]oxazepin-3-yl)picolinamide]	12.8	4590	12.1
Cc1nc(Cc2ccnc(C(=O)N[C@H]3COc4ccc(C#CC5CCOCC5)cc4N(C)C3=O)c2)cs1 [I-90, (S)—N-(5-methyl-4-oxo-7-((tetrahydro-2H-pyran-4-yl)ethynyl)-2,3,4,5-tetrahydrobenzo[b][1,4]oxazepin-3-yl)-4-((2-methylthiazol-4-yl)methyl)picolinamide]	20	20.5	1.9
CN1C(=O)[C@@H](NC(=O)c2cc(Oc3cccnc3)ccn2)COc2ccc(C#CC(C)(C)C)cc21 [I-102, (S)—N-(7-(3,3-dimethylbut-1-yn-1-yl)-5-methyl-4-oxo-2,3,4,5-tetrahydrobenzo[b][1,4]oxazepin-3-yl)-4-(pyridin-3-yloxy)picolinamide]	29.5	645	7.5
Cc1cccc(Cc2cnn(C(=O)N[C@H]3CCc4ccc(C#CC(C)(C)O)cc4N(C)C3=O)c2)n1 [I-119, (S)—N-(8-(3-Hydroxy-3-methylbut-1-yn-1-yl)-1-methyl-2-oxo-2,3,4,5-tetrahydro-1H-benzo[b]azepin-3-yl)-4-((6-methylpyridin-2-yl)methyl)-1H-pyrazole-1-carboxamide]	17.1	407	16.6
